Results on ten molecules are retold here after patent US6476074B1, “Method and composition for treatment of erectile dysfunction” (Synphora AB, priority 1997, dated 2002).

Data set [1] relates to cat eyes. The experiment in a line: Irritant effect in cat eyes (behavioural model, eyelid closure). The data set is classed as in vivo. Conditions: for Maximum irritative effect: scale 0-3, Mean ± SEM (n = 3-6); for irritant effect (in words): cat eye, topical single dose. As for the experimental part: The irritant effect of the prostaglandin analogues was tested using a behavioural model in cats. In this model the irritant effect on the eye is studied by registering the degree of eyelid closure and the behaviour of the animals. Compounds that cause discomfort and pain in the eye cause the animals to close their eyes. The analogues were applied as carboxylic acid esters, to enhance bioavailability, topically on the eye as a single dose at different dose levels. The animals were then followed for several hours at regular intervals. Each compound and dose was tested on a group of 3-6 cats. At least 3 days elapsed between two consecutive tests on the same animals. An arbitrary scale from 0 (absence of irritation) to 3 (marked irritation), with half steps was used.

For data set [2] the following is noted: reference value used for the TLC estimate; cited from earlier work.
Data set [3] relates to rabbit penile blood vessels. As to the kind of experiment: Vasodilatory effect on isolated rabbit penile blood vessels precontracted with norepinephrine (myograph). Conditions: FIG. 2; precontracted with 10^−6 M norepinephrine; normalized to papaverine. It is filed as cell-based. The method, then:
The solution also contained indomethacin at a final concentration of about 3 μM, and was continuously bubbled by 95% O2 and 5%CO2. The temperature was kept constant at 37° C. The vessels were stretched and then precontracted using 10^-6 M norepinephrine, and the vasorelaxant effect of the prostaglandin analogues was normalized by comparing it to that of papaverine in the same preparation. Cumulative concentration-response curves were constructed for the analogues.

Another data set concerns anaesthetized rats. As to the kind of experiment: Reduction of blood pressure in anaesthetized rats on intravenous infusion. The data set is classed as in vivo, rat. Conditions: n=3, Mean ± SEM. An excerpt:
The vasodilatory effect of the prostaglandin analogues was also studied in the rat by registering the blood pressure reducing effect. This is a relevant […] model for showing general vasodilatory effect of importance for inducing erection since vasodilation in penis is needed for achieving erection. Rats were anaesthetized with a mixture of ketarnine and xylazin and the prostaglandin analogues were infused intravenously. The blood pressure was continuously registered in a femoral artery. Each analogue was infused in 3 escalating doses in the same animal. […] In all experiments the blood pressure reduction was transient and the blood pressure increased immediately after termination of the infusion. The analogues were used both as esters and acids for the experiments.

For data set [4], the system named is human corpus cavernosum tissue. The experiment in a line: Relaxation of isolated human corpus cavernosum tissue precontracted with norepinephrine. It is filed as cell-based. The note with it: for EC50: relaxation of tissue precontracted with 10^−6 M norepinephrine; for EC50 / Reduction in tension (%): n=8; for Reduction in tension (%): precontracted with 10^−6 M norepinephrine, compared to carbachol (10^−6 M), Mean ± SEM. The method, then:
Human penile cavernous tissue was obtained fresh from surgery, and representative tissue samples were mounted in smooth muscle tissue baths containing a modified Kreb's solution consisting of NaCl 119 mM, KCl 4.6 mM, MgCl2 1.2 mM, NaH2PO4 1.2 mM, NaHCO3 15 mM, CaCl2 1.5 mM and glucose 11 mM. The solution also contained indomethacin at a final concentration of about 3 μM. The solution was continuously bubbled by 95% O2 and 5% CO2, and the temperature was kept at 37° C.
The tissue preparations were stretched by a force corresponding to 500 mg, and were given a contractile tone by the addition of norepinephrine at a concentration of 10^−6 M. Concentration-response curves were then constructed by adding cumulatively increasing concentrations of the prostaglandin analogues to the bath in a routine way. The relaxant effect was normalized by comparing to that of carbachol in the same preparation.

Data set [5] can be described thus: log P estimated by thin layer chromatography. It is filed as physicochemical. Conditions: estimated from thin layer chromatography with PGF2α isopropyl ester as reference.
For data set [6], the system named is cat eyes. The experiment in a line: Intraocular pressure in cats by pneumatonometry after topical administration. The data set is classed as in vivo. Conditions: 3 cats, local anaesthesia; before treatment 16.3+/−0.9 mmHg; vehicle eye 16.3 and 15.7 mmHg. As for the experimental part: To confirm that 19R-OH-PGE2-methyl ester, which is more hydrophilic than PGE1-isopropyl ester, indeed penetrates into the cornea and the intraocular parts of the eye we measured the intraocular pressure in 3 cats under local anaesthesia before and 1 hour after topical administration of the prostaglandin to the eye. The intraocular pressure was measured by pneumatonometry. One eye was treated with the test compound and the other eye received the vehicle only. In the eyes treated topically with 19R-OH-PGE2-methyl ester the intraocular pressure decreased from 16.3+/−0.9 mmHg to 12.7+/−1.2 mmHg, whereas it was 16.3+/−0.9 mmHg and 15.7+/−0.7 mmHg in the control eyes at the same time points. It is well known that prostaglandins reduce the intraocular pressure in cats (Bito et al., 1989), and it can thus be taken as an evidence that the drug has penetrated into the eye. […] Thus the absence of pain and irritation after administration of 18RS-OH-PGE2, 19R-OH-PGE2 and 20OH-PGE2 cannot be explained on the basis of increased hydrophilicity and poor bioavailability.

Data set [7] concerns cat eyes. As to the kind of experiment: Irritant effect in cat eyes (behavioural model, eyelid closure). The note with it: cat eye. It is filed as in vivo.
The next data set relates to rabbits. The note with it: Hall and Jaitly, 1977; cited from earlier work.
Setting [8] is: 7.5-10 μg/kg intravenous infusion.
Setting [9] is: 25-35 μg/kg intravenous infusion.

In the case of `CCCCC[C@H](O)/C=C/[C@H]1[C@H](O)CC(=O)[C@@H]1CCCCCCC(=O)OC(C)C` [PGE1-ie, PGE1-isopropyl ester, reference compound], the Maximum irritative effect with cat eyes [1] (Dose 0.01 μg topically on eye) was 0.4 ± 0.2; with cat eyes [1] (Dose 0.1 μg topically on eye), 1.7 ± 0.3; in the data set on cat eyes [1] (Dose 0.3 μg topically on eye) it was 2.8 ± 0.1.

For `CCCCC[C@H](O)/C=C/[C@@H]1[C@@H](C/C=C\CCCC(=O)OC(C)C)[C@@H](O)C[C@H]1O` [PGF2α isopropyl ester], the “log P of reference” value in data set [2] is recorded as “(log P 4.5). ie = isopropyl ester, me = methyl ester”.

As usually defined, the EC50 is the midpoint of the concentration-response curve. By chromatographic logP is commonly meant lipophilicity estimated from chromatographic retention. Consider `CCCCC[C@H](O)/C=C/[C@H]1[C@H](O)CC(=O)[C@@H]1CCCCCCC(=O)O` [PGE1, prostaglandin E1, reference compound], for which the “vasodilatory effect (in words)” value in [3] was “the same efficacy in inducing vasodilatation and were also about equipotent”. Besides, the “Reduction (%) of blood pressure” value in the data set with anaesthetized rats (setting [8]) came to 35 ± 5%; in the data set on anaesthetized rats (setting [9]) it was 52 ± 3%. Further, the Maximum irritative effect is 0.6 ± 0.1 in the data set with cat eyes [1] (Dose 0.1 μg topically on eye), 1.6 ± 0.2 with cat eyes [1] (Dose 1 μg topically on eye) and 3.0 ± 0.0 with cat eyes [1] (Dose 10 μg topically on eye). Further, in data set [4] (Homo sapiens), the EC50 came to 250 nM. Moreover, the “Reduction in tension (%)” value in [4] was determined as 90.9 ± 3.7%. Besides, the chromatographic logP in data set [5] is 0.7.

Regarding `COC(=O)CCC/C=C\C[C@H]1C(=O)C[C@@H](O)[C@@H]1/C=C/[C@@H](O)CCCCCO` [20-OH-PGE2-me, 20-OH-Prostaglandin E2-Methyl Ester], the values for the Maximum irritative effect in the data set with cat eyes [1] (Dose 3 μg topically on eye), in the data set with cat eyes [1] (Dose 10 μg topically on eye) and in the data set on cat eyes [1] (Dose 30 μg topically on eye) were 0.5 ± 0.0, 1.2 ± 0.2 and 1.2 ± 04, respectively.

Take `COC(=O)CCC/C=C\C[C@H]1C(=O)C[C@@H](O)[C@@H]1/C=C/[C@@H](O)CCC[C@@H](C)O` [19R-OH-PGE2-me, 19-R-Hydroxy-prostaglandin E2-Methyl Ester]: in the data set on cat eyes [6], the “intraocular pressure 1 hour after topical administration” value is given as 12.7+/−1.2 mmHg. Also, the Maximum irritative effect with cat eyes [1] (Dose 0.1 μg topically on eye) is reported as 0.0 ± 0.0; in the data set with cat eyes [1] (Dose 1 μg topically on eye), 0.1 ± 0.1; in the data set with cat eyes [1] (Dose 10 μg topically on eye), 0.1 ± 0.1; in the data set on cat eyes [1] (Dose 100 μg topically on eye), 0.7 ± 0.4. For the same molecule, the “irritant effect (in words)” value in the data set with cat eyes [1] is “no or markedly reduced irritant effect, even at doses 1000 times higher than PGE1-isopropyl ester”.

On to `O=C(O)CCC/C=C\C[C@H]1C(=O)C[C@@H](O)[C@@H]1/C=C/[C@@H](O)CCCCCO` [20-OH-PGE2, 20-hydroxy PGE2], for which the “Reduction (%) of blood pressure” value is listed as 38 ± 3% in the data set on anaesthetized rats (setting [8]) and 44 ± 0% in the data set on anaesthetized rats (setting [9]).

For `C[N+](C)(C)CCOC(N)=O` [Carbachol, reference compound], the “Reduction in tension (%)” value in [4] is listed as 100.0 ± 0.0%.

Regarding `CCC(O)CC[C@H](O)/C=C/[C@H]1[C@H](O)CC(=O)[C@@H]1C/C=C\CCCC(=O)OC` (stereo partly shown) [18RS-OH-PGE2-me, 18RS-Hydroxy PGE2 Methyl Ester], the Maximum irritative effect with cat eyes [1] (Dose 1 μg topically on eye) is on record as 0.0 ± 0.0; in the data set on cat eyes [1] (Dose 3 μg topically on eye), 0.0 ± 0.0; in the data set with cat eyes [1] (Dose 10 μg topically on eye), 0.0 ± 0.0; in the data set on cat eyes [1] (Dose 30 μg topically on eye), 0.3 ± 0.2. Besides, the “irritant effect (in words)” value with cat eyes [1] was “no or markedly reduced irritant effect, even at doses 1000 times higher than PGE1-isopropyl ester”.

For the molecule 18RS-OH-PGE2, the figures for the “Reduction (%) of blood pressure” value in the data set on anaesthetized rats (setting [8]) and with anaesthetized rats (setting [9]) were 15 ± 3% and 32 ± 2%, respectively.

Turning to `C[C@@H](O)CCC[C@H](O)/C=C/[C@H]1[C@H](O)CC(=O)[C@@H]1C/C=C\CCCC(=O)O` [19R-OH-PGE2, 19R-hydroxy-prostaglandin E2], the “vasodilatory effect (in words)” value in data set [3] was “the same efficacy in inducing vasodilatation and were also about equipotent”. The results for the “Reduction (%) of blood pressure” value in the data set with anaesthetized rats (setting [8]) and in the data set on anaesthetized rats (setting [9]) were 31 ± 3% and 43 ± 6%, respectively. Besides, in the data set on cat eyes [7], the “irritation by swelling of the ocular structures (in words)” value is reported as “no evidence of such irritation”. The “lid closure and irritant effect in rabbit eye (in words)” value in the data set on rabbits is recorded as “does not cause lid closure in rabbits but induces an irritant effect by inducing swelling of the ocular structures”. Also, in data set [4] (FIG. 1, 19R-OH-PGE2 about half to one third as potent as PGE1), the “factor by which concentration-response curves of PGE1 and 19R-OH-PGE2 differ” value is reported as 2-3. In data set [4], the “Reduction in tension (%)” value was found to be 96.9 ± 3.1%. Further, a half-maximal response in data set [4] (EC50) required 690 nM.
